Data from US20080292619A1, “Pharmaceutical Composition Containing Meltrin Antagonist” (MOCHIDA PHARMACEUTICAL CO., LTD., priority 2004, published 2008).
In the oligonucleotide strings, read from the 5' end, every base follows the letter of its sugar. An asterisk marks phosphorothioate; unmarked linkages are phosphodiester. Other units and linkages are bracketed, terminal groups are in braces. A string of capitals states the bases alone. d = 2'-deoxy (DNA)

Legend:
human meltrin α RNA = test: Suppression of human meltrin α expression by antisense compound in RD cell (real time PCR); format: cell-based; conditions: 50 nM; RD cell
How it was run: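 RD cells transfected with heat-denatured antisense oligodeoxynucleotide plus Lipofectin in Opti-MEM for 4 h at 37° C, then cultured 18 h. Meltrin α RNA quantified by TaqMan RT-PCR against plasmid standard curve, GAPDH-corrected; suppression vs untreated cells, rated +/++/+++ for ≥30/50/70%.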

human preadipocyte = test: Effect of antisense compound on adipocyte proliferation and differentiation (Adipo Red); format: cell-based; conditions: 300 nM; human preadipocyte
Procedure: First, human preadipocyte (Human Preadipocytes-sq POIETICS #PT-5020, Sanko Junyaku Co., Ltd.) was suspended in growth medium (#PT-8200, Sanko Junyaku Co., Ltd.), and after adding the suspension to a 96 well culture plate at 1×10^4 cells/well/100 μL, the cells were cultured overnight at 37° C. in the presence of 5% CO2.
The preadipocyte was cultured overnight, and after washing the preadipocyte twice with serum-free DMEM, Opti-MEM was added at 80 μL/well.
Gene transfection reagent Lipofectin was diluted with Opti-MEM to 20 μg/mL, and the dilution was allowed to stand at room temperature for 30 minutes. Next, the antisense oligodeoxynucleotide synthesized as described above was heated at 90° C. for 3 minutes, and after quenching on ice, diluted with Opti-MEM to a concentration 10 times higher than the final concentration. Equal amounts of the Lipofectin in Opti-MEM and the antisense oligodeoxynucleotide in Opti-MEM were mixed, and the mixture was incubated at room temperature for 15 minutes and added to 96 well plate at 20 μL/well. After incubating at 37° C. for 4 hours in the presence of 5% CO2, it was used for examination as described below.
The differentiation medium was prepared by using growth medium (#PT-8200, Sanko Junyaku Co., Ltd.) and supplement kit (PGM Single Quots, #PT-9500, Sanko Junyaku Co., Ltd.) according to the instruction of the kit. Next, the culture supernatant containing the Lipofectin was removed from the 96 well plate prepared in the above (2), and the plate was washed twice with serum-free DMEM, and the differentiation medium prepared as described above was added at 100 μL/well. The plate was then incubated at 37° C. for 5 days to 15 days in the presence of 5% CO2.
Accumulation of the neutral fat in the adipocyte was determined by fluorometry using Adipo Red stain.
After taking the 96 well plate out of the CO2 incubator, the plate was allowed to stand until it reached room temperature. The plate was centrifuged at 300 g (1200 rpm) for 10 minutes at room temperature to remove the medium. Next, after gently washing with PBS (SIGMA) at 200 μL/well, PBS was added to the well at 200 μL/well. Next, Adipo Red Assay Reagent (Adipo Red, Cat. #PT-7009, Lot.3F0497, A Cambrex Company) was added at 5 μL/well, and the plate was allowed to stand at room temperature for at least 10 minutes to thereby stain the neutral fat accumulated in the adipocyte. The fat accumulation was determined by measuring fluorescence intensity in a fluorometer at an excitation wavelength of 485 nm and an emission wavelength of 535 nm.
The suppression rate of the adipocyte differentiation was calculated by converting the fluorescence intensity of the well transfected with the antisense compound in relation to the fluorescence intensity of the well without transfection with the antisense compound which was assumed as 100%. The result was rated “+” when the suppression rate was at least 25%, “++” when the suppression rate was at least 50%, and “+++” when the suppression rate was at least 75%.

2 (dC*dT*dG*dG*dT*dT*dA*dA*dT*dG*dG*dT*dT*dC*dA*dC*dA*dT*dC*dT) [compound 2]
Supression of expression, 50 nM (human meltrin α RNA): ++ (“++” when the suppression rate was at least 50%)
Supression of adipose differentiation 300 nM (human preadipocyte): ++ (“++” when the suppression rate was at least 50%)
